Legend:
[1] = test system: HCT116 (colorectal cancer); experiment: In vitro cell proliferation assay (CCK-8), HCT116; format: cell-based; details: Homo sapiens, HCT-116, HCT116 cells, 72 hours
Method: (§1) In Vitro Cell Proliferation Assay
(§2) Cells were seeded on 96-well plates at 5×10^3 cells per well and precultured for 24 hours. The cells were treated with serial diluted compounds and cultured for 72 hours. Then all media was discarded and after that, 100 μL 1:10 (v/v) Cell Counting Kit-8 (CCK-8)-culture media solution was added to the wells. Plate was developed for 2 hrs in an incubator, and the absorbance was measured at 450 nm wavelengths with SpectraMAX190 (MDS, Sunnyvale, Calif.). The inhibition rate (IR) of the tested compounds was determined with following formula: IR (%)=(ODDMSO−ODcompound)/ODDMSO×100%. The concentration corresponding to 50% IR (IC50) was determined with plot curve of IR against tested compound concentrations with SoftMax Pro.

AGS (gastric cancer) = experiment: In vitro cell proliferation assay (CCK-8), AGS; format: cell-based; details: Homo sapiens, AGS cells, 72 hours
Method: as §1, §2

CDK8/Cyclin C = biological target: T1, CDK8/Cyclin C (Homo sapiens, UniProt P49336); experiment: CDK8/Cyclin C LANCE TR-FRET kinase assay; format: biochemical; details: CDK8/Cyclin C 10 nM, ATP 24 μM, Ulight-GS peptide 80 nM, 37° C. 30 mins
T1 construct: purchased Invitrogen PV4402
T1 sequence (P49336 whole entry): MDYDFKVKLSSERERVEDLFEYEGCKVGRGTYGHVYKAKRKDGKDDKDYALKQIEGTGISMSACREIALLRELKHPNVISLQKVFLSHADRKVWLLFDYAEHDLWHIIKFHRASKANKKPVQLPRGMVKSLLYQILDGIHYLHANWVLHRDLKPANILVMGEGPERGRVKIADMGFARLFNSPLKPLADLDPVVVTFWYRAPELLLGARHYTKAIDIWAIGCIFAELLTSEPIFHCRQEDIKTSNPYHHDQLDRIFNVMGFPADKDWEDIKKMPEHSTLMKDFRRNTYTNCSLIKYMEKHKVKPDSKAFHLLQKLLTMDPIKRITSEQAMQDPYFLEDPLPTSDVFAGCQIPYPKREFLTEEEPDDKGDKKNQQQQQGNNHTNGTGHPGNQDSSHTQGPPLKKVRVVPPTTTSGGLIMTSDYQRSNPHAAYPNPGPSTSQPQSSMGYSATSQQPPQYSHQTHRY
T1 sequence (P24863 whole entry partner): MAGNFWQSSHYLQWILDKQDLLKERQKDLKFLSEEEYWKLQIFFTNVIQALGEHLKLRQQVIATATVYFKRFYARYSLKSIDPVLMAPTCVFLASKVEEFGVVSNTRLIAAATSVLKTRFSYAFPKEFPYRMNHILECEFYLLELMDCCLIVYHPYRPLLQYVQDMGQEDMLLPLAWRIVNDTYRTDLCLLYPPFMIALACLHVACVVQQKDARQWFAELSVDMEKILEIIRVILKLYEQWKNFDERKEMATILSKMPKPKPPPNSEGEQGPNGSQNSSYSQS
Source text: CDK8/Cyclin C LANCE TR-FRET Kinase Assay
The biological activity of the compounds of the invention can be determined using the assay described below.
CDK8/Cyclin C protein was obtained from Invitrogen, cat #PV4402. ULight-Glycogen Synthase (Ulight-GS) peptide with sequence PASVPPSPSLSRHSSPHQ(pS)ED, and Europium-anti-phospho Glycogen Synthase (Ser641) [Eu-anti-P-GS (Ser641)] were obtained from Perkin Elmer, cat #TRF0131-M and cat #TRF0220. Adenosine-5′-triphosphate (ATP) was obtained from Invitrogen, cat #PV3227.
A mixture of (1) a compound of formula I, (2) substrate [Ulight-GS peptide (80 nM) and ATP (24 μM)], and (3) CDK8/Cyclin C (10 nM) in reaction buffer (50 mM Hepes, pH7.0, 10 mM MgCl2, 1 mM EGTA, 0.2 mg/mL BSA, 0.8 mM DTT) were incubated at 37° C. for 30 mins. Then, [Eu-anti-P-GS (Ser641)] (1.5 nM) was added. Following incubation at RT for 30 mins, the TR-FRET signals were detected using Envision reader (Ex 340 nm, Em 615 nm and 665 nm) from Perkin Elmer. The reactivity in percentage of inhibition or dose response was analyzed with GraphPad Prism 5 (GraphPad Software).

[2] = test system: DLD-1 (colorectal cancer); experiment: In vitro cell proliferation assay (CCK-8), DLD-1; format: cell-based; details: Homo sapiens, DLD-1 cells, 72 hours
Method: as §1, §2

Row | SMILES | IC50 (CDK8/Cyclin C) [nM] | also measured
1 | NC(=O)[C@H](Nc1cncc(-c2cc(Cl)ccc2F)c1)c1ccccc1 [Example 1, (R)-2-[5-(5-Chloro-2-fluoro-phenyl)-pyridin-3-ylamino]-2-phenyl-cetamide] | 91.7 | IC50 [1]: 2610 nM; IC50 (AGS (gastric cancer)): 2.66 µM
2 | NC(=O)C(Nc1cncc(-c2ccc(O)c(Cl)c2)c1)c1ccccc1 (centres unmarked) [Example 2, 2-[5-(3-Chloro-4-hydroxy-phenyl)-pyridin-3-ylamino]-2-phenyl-acetamide] | 105 | –
3 | NC(=O)[C@H](Nc1cncc(-c2ccc(O)c(Cl)c2)c1)c1ccccc1 [Example 3, (R)-2-[5-(3-Chloro-4-hydroxy-phenyl)-pyridin-3-ylamino]-2-phenyl-acetamide] | 7.1 | IC50 [1]: 740 nM; IC50 [2]: 0.604 µM; IC50 (AGS (gastric cancer)): 0.517 µM
4 | NC(=O)[C@@H](Nc1cncc(-c2ccc(O)c(Cl)c2)c1)c1ccccc1 [Example 4, (S)-2-[5-(3-Chloro-4-hydroxy-phenyl)-pyridin-3-ylamino]-2-phenyl-acetamide] | 471 | –
5 | Cc1ccncc1-c1cncc(NC(C(N)=O)c2ccccc2)c1 (centres unmarked) [Example 5, 2-(4′-Methyl-[3,3′]bipyridinyl-5-ylamino)-2-phenyl-acetamide] | 133 | –
6 | COc1cc(-c2cncc(NC(C(N)=O)c3ccccc3)c2)ccn1 (centres unmarked) [Example 6, 2-(2′-Methoxy-[3,4′]bipyridinyl-5-ylamino)-2-phenyl-acetamide] | 2170 | –
7 | CCOc1ccc(F)c(-c2cncc(NC(C(N)=O)c3ccccc3)c2)c1 (centres unmarked) [Example 7, 2-[5-(5-Ethoxy-2-fluoro-phenyl)-pyridin-3-ylamino]-2-phenyl-acetamide] | 1100 | –
8 | NC(=O)C(Nc1cncc(-c2ccc(F)c(Cl)c2)c1)c1ccccc1 (centres unmarked) [Example 8, 2-[5-(3-Chloro-4-fluoro-phenyl)-pyridin-3-ylamino]-2-phenyl-acetamide] | 2340 | –
9 | COc1cc(-c2cncc(NC(C(N)=O)c3ccccc3)c2)c(F)cn1 (centres unmarked) [Example 9, 2-(5′-Fluoro-2′-methoxy-[3,4′]bipyridinyl-5-ylamino)-2-phenyl-acetamide] | 1150 | –
10 | NC(=O)C(Nc1cncc(-c2cncc(Cl)c2)c1)c1ccccc1 (centres unmarked) [Example 10, 2-(5′-Chloro-[3,3′]bipyridinyl-5-ylamino)-2-phenyl-acetamide] | 1390 | –
11 | Cc1ccccc1C(Nc1cncc(-c2cc(Cl)ccc2F)c1)C(N)=O (centres unmarked) [Example 11, 2-[5-(5-Chloro-2-fluoro-phenyl)-pyridin-3-ylamino]-2-o-tolyl-acetamide] | 35.9 | –
12 | NC(=O)C(Nc1cncc(-c2cc(Cl)ccc2F)c1)c1ccccc1F (centres unmarked) [Example 12, 2-[5-(5-Chloro-2-fluoro-phenyl)-pyridin-3-ylamino]-2-(2-fluoro-phenyl)-acetamide] | 38.5 | –
13 | Cc1cccc(C(Nc2cncc(-c3cc(Cl)ccc3F)c2)C(N)=O)c1 (centres unmarked) [Example 13, 2-[5-(5-Chloro-2-fluoro-phenyl)-pyridin-3-ylamino]-2-m-tolyl-acetamide] | 566 | –
14 | NC(=O)C(Nc1cncc(-c2cc(Cl)ccc2F)c1)c1ccccc1Cl (centres unmarked) [Example 14, 2-[5-(5-Chloro-2-fluoro-phenyl)-pyridin-3-ylamino]-2-(2-chloro-phenyl)-acetamide] | 11 | –
15 | NC(=O)C(Nc1cncc(-c2cc(Cl)ccc2F)c1)c1cc(F)ccc1F (centres unmarked) [Example 15, 2-[5-(5-Chloro-2-fluoro-phenyl)-pyridin-3-ylamino]-2-(2,5-difluoro-phenyl)-acetamide] | 123 | –
16 | COc1ccc(F)c(-c2cncc(NC(C(N)=O)c3ccccc3)c2)c1 (centres unmarked) [Example 16, 2-[5-(2-Fluoro-5-methoxy-phenyl)-pyridin-3-ylamino]-2-phenyl-acetamide] | 264 | –
17 | NC(=O)C(Nc1cncc(-c2cc(Cl)ccc2F)c1)c1ccsc1 (centres unmarked) [Example 17, 2-[5-(5-Chloro-2-fluoro-phenyl)-pyridin-3-ylamino]-2-thiophen-3-yl-acetamide] | 54.2 | –

Row | SMILES | IC50 (CDK8/Cyclin C) [nM] | also measured
18 | Cc1ccc(C(Nc2cncc(-c3cc(Cl)ccc3F)c2)C(N)=O)cc1 (centres unmarked) [Example 18, 2-[5-(5-Chloro-2-fluoro-phenyl)-pyridin-3-ylamino]-2-p-tolyl-acetamide] | 240 | –
19 | NC(=O)C(Nc1cncc(-c2cc(Cl)ccc2F)c1)c1cccc(Cl)c1 (centres unmarked) [Example 19, 2-[5-(5-Chloro-2-fluoro-phenyl)-pyridin-3-ylamino]-2-(3-chloro-phenyl)-acetamide] | 432 | –
20 | NC(=O)C(Nc1cncc(-c2cc(Cl)ccc2F)c1)c1ccc(Cl)cc1 (centres unmarked) [Example 20, 2-[5-(5-Chloro-2-fluoro-phenyl)-pyridin-3-ylamino]-2-(4-chloro-phenyl)-acetamide] | 1080 | –
21 | COc1cccc(C(Nc2cncc(-c3cc(Cl)ccc3F)c2)C(N)=O)c1 (centres unmarked) [Example 21, 2-[5-(5-Chloro-2-fluoro-phenyl)-pyridin-3-ylamino]-2-(3-methoxy-phenyl)-acetamide] | 101 | –
22 | CS(=O)(=O)NC(=O)C(Nc1cncc(-c2cc(Cl)ccc2F)c1)c1ccccc1 (centres unmarked) [Example 22, N-{2-[5-(5-Chloro-2-fluoro-phenyl)-pyridin-3-ylamino]-2-phenyl-acetyl}-methanesulfonamide] | 7740 | –
23 | NC(=O)C(Nc1cncc(-c2cc(Cl)c(F)cc2F)c1)c1ccccc1 (centres unmarked) [Example 23, 2-[5-(5-Chloro-2,4-difluoro-phenyl)-pyridin-3-ylamino]-2-phenyl-acetamide] | 721 | –
24 | NC(=O)C(Nc1cncc(-c2cc(Cl)ccc2F)c1)c1ccccn1 (centres unmarked) [Example 24, 2-[5-(5-Chloro-2-fluoro-phenyl)-pyridin-3-ylamino]-2-pyridin-2-yl-acetamide] | 2110 | –
25 | NC(=O)C(Nc1cncc(-c2cc(Cl)ccc2F)c1)c1cccs1 (centres unmarked) [Example 25, 2-[5-(5-Chloro-2-fluoro-phenyl)-pyridin-3-ylamino]-2-thiophen-2-yl-acetamide] | 85.4 | –
26 | NC(=O)C(Nc1cncc(-c2ccc(O)c(Cl)c2)n1)c1ccccc1 (centres unmarked) [Example 26, 2-[6-(3-Chloro-4-hydroxy-phenyl)-pyrazin-2-ylamino]-2-phenyl-acetamide] | 4.8 | –
27 | NC(=O)[C@H](Nc1cncc(-c2ccc(O)c(Cl)c2)n1)c1ccccc1 [Example 27, (R)-2-[6-(3-Chloro-4-hydroxy-phenyl)-pyrazin-2-ylamino]-2-phenyl-acetamide] | 2.8 | –
28 | NC(=O)[C@@H](Nc1cncc(-c2ccc(O)c(Cl)c2)n1)c1ccccc1 [Example 28, (S)-2-[6-(3-Chloro-4-hydroxy-phenyl)-pyrazin-2-ylamino]-2-phenyl-acetamide] | 32.9 | –
29 | NC(=O)C(Nc1cncc(-c2cc(Cl)ccc2F)n1)c1ccccc1 (centres unmarked) [Example 29, 2-[6-(5-Chloro-2-fluoro-phenyl)-pyrazin-2-ylamino]-2-phenyl-acetamide] | 123 | –
30 | NC(=O)[C@H](Nc1cncc(-c2cc(Cl)ccc2F)n1)c1ccccc1 [Example 30, (R)-2-[6-(5-Chloro-2-fluoro-phenyl)-pyrazin-2-ylamino]-2-phenyl-aceamide] | 54.7 | –
31 | NC(=O)[C@@H](Nc1cncc(-c2cc(Cl)ccc2F)n1)c1ccccc1 [Example 31, (S)-2-[6-(5-Chloro-2-fluoro-phenyl)-pyrazin-2-ylamino]-2-phenyl-acetamide] | 828 | –
32 | COc1cccc(-c2cncc(NC(C(N)=O)c3ccccc3)n2)c1 (centres unmarked) [Example 32, 2-[6-(3-Methoxy-phenyl)-pyrazin-2-ylamino]-2-phenyl-acetamide] | 430 | –
33 | COc1cccc(-c2cncc(N[C@@H](C(N)=O)c3ccccc3)n2)c1 [Example 33, (R)-2-[6-(3-Methoxy-phenyl)-pyrazin-2-ylamino]-2-phenyl-acetamide] | 567 | –

Source: patent publication US9458106B2, “Phenyl-pyridine/pyrazine amides for the treatment of cancer” (Hoffmann-La Roche Inc., priority 2013, dated 2016)
